From US11147272B2, “Pyridone compounds and agricultural and horticultural fungicides comprising the same as active ingredients” (MITSUI CHEMICALS AGRO, INC., priority 2017, dated 2021)

Assays:
[1] = tested on: Colletotrichum orbiculare; assay: Test Example H: Anthracnose on cucumber; conditions: 250 ppm drug solution sprayed (2.5 ml/pot), cucumber Sagami Hanjiro, 6 to 10 days after inoculation
[2] = tested on: Plasmopara viticola; assay: Test Example G: Downy mildew on vine; conditions: 250 ppm drug solution sprayed (2.5 ml/pot), grape Neomuscat, 7 to 10 days after inoculation
[3] = tested on: Alternaia brassicicola; assay: Test Example C: Alternaria sooty spot on cabbage; assay type: in vivo; conditions: 250 ppm drug solution sprayed on test plant
Description: Seeds of a test plant (cabbage variety: Shikidori) were planted and cultivated until the cotyledons extended.
<Control Value> Control value=100{1−(n/3)}

[4] = tested on: Phytophthora infestans; assay: whole plant or invertebrate; assay type: in vivo; conditions: 250 ppm drug solution sprayed on test plant
[5] = tested on: Puccinia recondita; assay: Test Example E: Brown rust on wheat; assay type: in vivo; conditions: 250 ppm drug solution sprayed on test plant
[6] = tested on: Botrytis cinerea; assay: Test Example B: Gray mold on tomato; conditions: 250 ppm drug solution sprayed on test plant
[7] = tested on: Blumeria graminis f. sp. hordei; assay: Test Example D: Powdery mildew on barley; conditions: 250 ppm drug solution sprayed on test plant
[8] = tested on: Magnaporthe grisea; assay: whole plant or invertebrate; assay type: in vivo; conditions: 250 ppm drug solution sprayed on test plant

Structure (SMILES) | Test H control value [1] | Test G control value [2] | Test C control value [3] | Test F control value [4] | Test E control value [5] | Test B control value [6] | Test D control value [7] | Test A control value [8]
CCCC1=C(c2c(F)cccc2F)N(CC)C(=O)CC1 [compound 422] | L (50% or less control value) | L (50% or less control value) | H (more than 50% control value) | L (50% or less control value) | L (50% or less control value) | L (50% or less control value) | H (more than 50% control value) | L (50% or less control value)
CC(C)C(C)(O)c1cc(Br)c(=O)n(C)c1-c1c(F)cc(F)cc1F (stereo not drawn) [compound 423] | H (more than 50% control value) | H (more than 50% control value) | H (more than 50% control value) | H (more than 50% control value) | H (more than 50% control value) | H (more than 50% control value) | H (more than 50% control value) | H (more than 50% control value)
CCCC1=C(c2c(F)cc(F)cc2F)N(CC)C(=S)CC1 [compound 424] | L (50% or less control value) | L (50% or less control value) | L (50% or less control value) | L (50% or less control value) | L (50% or less control value) | H (more than 50% control value) | L (50% or less control value) | L (50% or less control value)
CCCc1ccc(=O)n(CC)c1-c1c(F)cccc1F [compound 426] | H (more than 50% control value) | L (50% or less control value) | H (more than 50% control value) | L (50% or less control value) | L (50% or less control value) | H (more than 50% control value) | L (50% or less control value) | H (more than 50% control value)
CCCc1ccc(=S)n(CC)c1-c1c(F)cc(F)cc1F [compound 427] | H (more than 50% control value) | L (50% or less control value) | H (more than 50% control value) | L (50% or less control value) | L (50% or less control value) | H (more than 50% control value) | L (50% or less control value) | L (50% or less control value)
CCCc1cc(Cl)c(=O)n(CC)c1-c1c(F)cccc1F [compound 428] | H (more than 50% control value) | H (more than 50% control value) | H (more than 50% control value) | L (50% or less control value) | H (more than 50% control value) | H (more than 50% control value) | H (more than 50% control value) | H (more than 50% control value)
CCCc1cc(Br)c(=O)n(CC)c1-c1c(F)cccc1F [compound 429] | H (more than 50% control value) | H (more than 50% control value) | H (more than 50% control value) | L (50% or less control value) | H (more than 50% control value) | H (more than 50% control value) | H (more than 50% control value) | H (more than 50% control value)
CCCc1cc(Cl)c(=S)n(CC)c1-c1c(F)cc(F)cc1F [compound 430] | H (more than 50% control value) | L (50% or less control value) | H (more than 50% control value) | L (50% or less control value) | H (more than 50% control value) | H (more than 50% control value) | H (more than 50% control value) | H (more than 50% control value)
CCCc1cc(Br)c(=O)n(C)c1-c1ccc(OC)cc1C [compound 431] | H (more than 50% control value) | H (more than 50% control value) | H (more than 50% control value) | L (50% or less control value) | H (more than 50% control value) | H (more than 50% control value) | H (more than 50% control value) | H (more than 50% control value)
COC(C)(c1cc(Br)c(=O)n(C)c1-c1c(F)cc(F)cc1F)C(C)C (stereo not drawn) [compound 432] | H (more than 50% control value) | L (50% or less control value) | H (more than 50% control value) | L (50% or less control value) | H (more than 50% control value) | H (more than 50% control value) | H (more than 50% control value) | H (more than 50% control value)
CCCc1cc(Cl)c(=O)n(C)c1-c1ccc(OC)cc1C [compound 433] | H (more than 50% control value) | H (more than 50% control value) | H (more than 50% control value) | L (50% or less control value) | H (more than 50% control value) | H (more than 50% control value) | H (more than 50% control value) | L (50% or less control value)
CCCc1cc(I)c(=O)n(CC)c1-c1c(F)cc(F)cc1F [compound 434] | H (more than 50% control value) | L (50% or less control value) | H (more than 50% control value) | L (50% or less control value) | H (more than 50% control value) | H (more than 50% control value) | H (more than 50% control value) | H (more than 50% control value)
CCCC1=C(c2c(F)cc(F)cc2F)N(CCC)C(=O)CC1 [compound 435] | L (50% or less control value) | L (50% or less control value) | H (more than 50% control value) | H (more than 50% control value) | L (50% or less control value) | L (50% or less control value) | L (50% or less control value) | L (50% or less control value)
CCCc1cc(I)c(=O)n(CC)c1-c1c(F)cc(OC)cc1F [compound 436] | H (more than 50% control value) | L (50% or less control value) | H (more than 50% control value) | L (50% or less control value) | H (more than 50% control value) | H (more than 50% control value) | H (more than 50% control value) | H (more than 50% control value)
CCCc1ccc(=O)n(CCC)c1-c1c(F)cc(F)cc1F [compound 437] | H (more than 50% control value) | L (50% or less control value) | L (50% or less control value) | L (50% or less control value) | L (50% or less control value) | L (50% or less control value) | H (more than 50% control value) | L (50% or less control value)
CCCc1ccc(=O)n(CC)c1-c1c(F)cc(O)cc1F [compound 438] | L (50% or less control value) | L (50% or less control value) | H (more than 50% control value) | L (50% or less control value) | H (more than 50% control value) | H (more than 50% control value) | L (50% or less control value) | L (50% or less control value)
CCCc1cc(Cl)c(=O)n(CCC)c1-c1c(F)cc(F)cc1F [compound 439] | H (more than 50% control value) | L (50% or less control value) | L (50% or less control value) | L (50% or less control value) | L (50% or less control value) | L (50% or less control value) | L (50% or less control value) | H (more than 50% control value)
CCCc1cc(Br)c(=O)n(CCC)c1-c1c(F)cc(F)cc1F [compound 440] | L (50% or less control value) | L (50% or less control value) | L (50% or less control value) | L (50% or less control value) | L (50% or less control value) | L (50% or less control value) | L (50% or less control value) | H (more than 50% control value)
